Experiments:
[1] = tested on: T cell clone HER500.23c21; test: Epitope mapping of clone HER500.23c21 with individual HER500 15-mer peptides and autologous EBV-LcL (IFNγ ELISA, IL-2 by HT-2 proliferation); format: cell-based, human; conditions: each peptide 1 ug/ml; autologous EBV LCL cells as antigen presenting cells
Procedure: FIG. 2. T cell clone HER500.23.21 is specific for Peptide #63 (HERp270-284). The HER-2/neu epitope was mapped for clone HER500.23.21 and specificity was determined using autologous EBV-LcLs and each individual HER500 peptide #1-125 (15 amino acids in length). The assay was set up in 96 well round bottom plates with autologous EBV-LcLs at 2×10^5 cells/well and the T cell clone HER500.23.21 added at 1×10^5 cells/well. Each peptide was used at a final concentration of 1 ug/mL. The assay was incubated at 37° C. with 5% CO2 for 48 hours at which time supernatant was removed to test for cytokine production. (A) IFNγ production by clone HER500.23.21 was measured using ELISA, calculated pg/mL is shown for each HER500 peptide. (B) IL-2 production was measured using HT-2 cell proliferation.
Identification and Characterization of HER-2/neu specific T cell clones. […]
Cytokine Production. […] IL-2 production was measured using the IL-2 dependent line HT-2 (ATCC). […] TdR was added for the final 6 hours of the assay and plates were harvested to glass fiber filter mats and DNA incorporation of the radioisotope, or proliferative response, was determined by counts per minute using a liquid scintillation counter (PerkinElmer Life and Analytical Sciences, Inc. Boston, Mass.). IFNγ production was measured using anti-human IFNγ antibody pairs for ELISA (BD Pharmingen, San Diego, Calif.). […]

[2] = tested on: T cell clone HER500.23c21; test: HLA-DR restriction: blocking anti-MHC class II antibodies in HERp270-284 stimulation of HER500.23c21 (IFNγ ELISA); format: cell-based, human; conditions: antibody blocking with anti-HLA-DR and anti-HLA-DP/-DQ
Procedure: FIG. 3. HLA-DR Restriction. Autologous EBV-LcL at 2×10^5 cells/mL and HERp270-284 was used to stimulate the T cell clone HER500.23c21 (1×10^5 cells/well), with and without the addition of blocking anti-MHC class II antibodies. Anti-HLA-DR ♦ and anti-HLA-DQ/anti-HLA-DP ▪ were titrated at the concentrations shown in cRPMI+10% FBS. Wells also contained EBV-LcLs, HER500.23c21T cell clone and peptide (1 μg/mL). Assay was incubated for 48 hours at 37° C. with 5% CO2. Supernatants were harvested and frozen at −20° C. and at a later date, analyzed for IFNγ production using ELISA. Multiple experiments were performed, mean triplicate values for one representative experiment is shown.
HLA-DR Restriction and Promiscuity. To determine HLA-DR restriction of the T cell epitope HERp270-284, anti-HLA-DR mAb L243, HLA-DQ mAb 1a3 or HLA-DP mAb B7/21 (20-1.25 μg/mL) were cultured with T cell clone HER.23c21, peptide HERp270-284 and autologous EBV-LcL in cRPMI+10% FBS media. Supernatants were harvested after 48 hours and tested for IL-2 and IFNγ production. […]
In order to determine which HLA molecules were responsible for presenting HERp270-284 to HER500.23c21, HLA-blocking antibodies were used to inhibit presentation and T cell activation. […] T cell stimulation was determined by IFNγ production.

With “ALVTYNTDTFESMPN (HER-2/Neu peptide 270-284, HER500 peptide #63, HERp270-284, HER-2/Neu epitope 270-284, residues 3-17 of SEQ ID NO1) [Peptide 63]” the “response of HER500.23c21 measured by IFNγ or IL2 production” value [1] was “responded to only one individual peptide” and the “HLA restriction of HER500.23c21 recognition” value [2] was “HLA-DR restricted”.

From patent US8263757B2, “Promiscuous HER-2/Neu CD4 T cell epitopes” (Dendreon Corporation, priority 2006, dated 2012)
